The subject of one test is NIH3T3-PDGF-ββ cells. Put plainly: Growth assay with NIH3T3-PDGF-ββ cells, cell number by PicoGreen DNA. The note with it: for inhibition compared to the base medium (BITS): Example 4 (Table 2); for % of control cell growth: 5 days, BITS medium. The test is classed as cell-based. The procedure:
NIH 3T3 cells transfected with PDGF-ββ (a stable cell line) were obtained from Mount Sinai School of Medicine. These cells overexpress PDGF-ββ and are activated via the PDGF-R in an autocrine fashion. Cells were grown at 37° C. in Dulbecco's Modified Eagles Medium (high glucose) (DMEM) with 10% heat-inactivated fetal calf serum (FCS) with 100 units or μg/ml penicillin/streptomycin with 750 μg/ml G418 sulfate (Geneticin) selection. Cells were incubated in an atmosphere of 5% CO2, and cultures were fed twice weekly. For subcultivation, cells were allowed to attain confluence and washed twice with PBS or Hank's balanced salt solution (minus Ca^++ and Mg^++) before addition of a trypsin/EDTA solution to dislodge the cells. Cells were split anywhere from ¼ to 1/12 into a sterile T-75 Flask depending on the time desired until confluence.
To identify peptides that inhibit cell growth in culture, candidate peptides were screened in a growth assay with NIH3T3-PDGF-ββ cells. Cells were expanded in DMEM containing G418 as described above. […] Growth medium was removed and the peptide solution added (250 μl/well). Cells were incubated for 5 days without feeding prior to testing. After this time, growth of cells treated with each peptide was compared to growth in control medium (no peptide added).
Cell number was assessed by measurement of total cellular double-stranded DNA using the PicoGreen Assay Kit (Molecular Probes, Eugene, Oreg., USA, lot #6405-1). For PicoGreen analysis, cell lysates (100 μl ) were added to 100 µl of the dye solution prepared by diluting the PicoGreen dye (1:200 in 1× TE according to the manufacturer's instructions). Plates were read after five minutes in a fluorimeter (irradiated at an excitation wavelength of 485 nm). Fluorescence emission was measured at 530 nm using a CytoFluor Series 4000 (PerSeptive Biosystems, Framingham, Mass.). For correlating DNA level to cell number, a standard curve was established for the NIH3T3-PDGF-ββ cells. For analysis, DNA absorbance/emission was compared to the absorbance/emission shown by a standard curve of DNA.

The subject of the next test is PDGF-R. The note with it: in the μM range; cited from earlier work.
The target of a further test is α-type PDGF-R (Homo sapiens, UniProt P16234). The note with it: high concentrations; cited from earlier work.
Chain of α-type PDGF-R (P16234 24-1089): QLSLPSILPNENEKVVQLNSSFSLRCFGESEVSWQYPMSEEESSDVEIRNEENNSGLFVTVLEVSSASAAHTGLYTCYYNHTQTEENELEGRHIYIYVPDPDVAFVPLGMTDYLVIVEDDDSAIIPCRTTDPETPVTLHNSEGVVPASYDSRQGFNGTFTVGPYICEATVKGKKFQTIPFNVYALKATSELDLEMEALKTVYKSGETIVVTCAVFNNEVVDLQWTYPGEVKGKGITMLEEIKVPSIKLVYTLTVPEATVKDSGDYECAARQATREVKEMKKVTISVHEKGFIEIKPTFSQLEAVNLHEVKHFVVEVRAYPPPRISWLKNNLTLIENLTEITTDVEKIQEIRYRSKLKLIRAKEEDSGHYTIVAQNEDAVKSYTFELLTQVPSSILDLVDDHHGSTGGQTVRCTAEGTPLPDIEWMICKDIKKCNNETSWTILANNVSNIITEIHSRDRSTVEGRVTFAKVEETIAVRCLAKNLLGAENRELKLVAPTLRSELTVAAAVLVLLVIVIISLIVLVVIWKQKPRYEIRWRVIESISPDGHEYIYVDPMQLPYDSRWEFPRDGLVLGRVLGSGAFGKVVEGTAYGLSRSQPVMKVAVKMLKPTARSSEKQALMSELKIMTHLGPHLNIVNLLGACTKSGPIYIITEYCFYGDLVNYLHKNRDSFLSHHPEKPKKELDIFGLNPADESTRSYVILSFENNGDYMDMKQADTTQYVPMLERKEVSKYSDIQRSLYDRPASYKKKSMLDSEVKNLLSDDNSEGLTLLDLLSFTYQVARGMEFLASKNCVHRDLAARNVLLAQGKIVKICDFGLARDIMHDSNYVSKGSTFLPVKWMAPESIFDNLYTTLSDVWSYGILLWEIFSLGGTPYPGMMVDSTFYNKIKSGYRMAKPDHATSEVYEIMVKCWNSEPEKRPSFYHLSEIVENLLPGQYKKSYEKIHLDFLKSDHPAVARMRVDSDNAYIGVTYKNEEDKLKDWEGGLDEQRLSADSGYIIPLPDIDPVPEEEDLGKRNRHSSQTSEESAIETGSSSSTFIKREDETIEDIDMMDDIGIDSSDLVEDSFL
The target in another test is PDGF β receptor (Homo sapiens, UniProt P09619). The note with it: cited from earlier work.
Chain of PDGF β receptor (P09619 33-1106): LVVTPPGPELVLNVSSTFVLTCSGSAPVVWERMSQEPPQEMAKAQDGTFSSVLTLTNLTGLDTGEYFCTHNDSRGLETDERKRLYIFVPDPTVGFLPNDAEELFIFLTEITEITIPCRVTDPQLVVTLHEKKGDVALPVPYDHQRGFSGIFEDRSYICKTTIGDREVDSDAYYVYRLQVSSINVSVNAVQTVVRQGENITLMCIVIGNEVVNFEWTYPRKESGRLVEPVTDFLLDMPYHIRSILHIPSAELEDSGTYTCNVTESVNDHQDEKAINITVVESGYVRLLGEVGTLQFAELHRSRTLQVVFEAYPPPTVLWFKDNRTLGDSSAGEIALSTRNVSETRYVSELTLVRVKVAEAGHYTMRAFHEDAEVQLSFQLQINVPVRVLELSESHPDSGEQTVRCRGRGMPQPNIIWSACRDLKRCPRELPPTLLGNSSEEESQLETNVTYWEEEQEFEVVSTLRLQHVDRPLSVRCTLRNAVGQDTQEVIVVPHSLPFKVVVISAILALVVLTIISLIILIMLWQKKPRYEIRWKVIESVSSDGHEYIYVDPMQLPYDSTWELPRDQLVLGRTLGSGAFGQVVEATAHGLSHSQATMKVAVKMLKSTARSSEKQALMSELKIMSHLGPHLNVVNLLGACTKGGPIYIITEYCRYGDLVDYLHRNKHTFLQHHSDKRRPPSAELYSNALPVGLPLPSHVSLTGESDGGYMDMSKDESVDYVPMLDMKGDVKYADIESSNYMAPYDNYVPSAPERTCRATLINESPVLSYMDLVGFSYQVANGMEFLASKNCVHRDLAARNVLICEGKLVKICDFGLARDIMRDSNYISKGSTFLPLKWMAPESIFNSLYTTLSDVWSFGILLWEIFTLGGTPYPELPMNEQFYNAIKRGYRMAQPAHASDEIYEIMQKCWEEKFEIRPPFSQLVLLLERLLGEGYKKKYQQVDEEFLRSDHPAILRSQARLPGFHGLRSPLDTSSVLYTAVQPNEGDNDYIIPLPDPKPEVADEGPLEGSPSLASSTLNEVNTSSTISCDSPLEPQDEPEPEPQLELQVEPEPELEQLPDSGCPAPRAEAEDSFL

Where a SMILES comes first, the peptide text is derived from it.

Regarding `NCCCC[C@H](NC(=O)[C@H](CCCCN)NC(=O)[C@H](CCCCN)NC(=O)[C@@H](N)CCCCN)C(=O)O` [KKKK] (H-KKKK-OH), the “inhibition of cell growth compared to control medium (BITS)” value in the test on NIH3T3-PDGF-ββ cells (Example 3, KKKK (Bachem) 3 mM) was found to be 21%; with NIH3T3-PDGF-ββ cells (Example 3, KKKK (Bachem) 6 mM), 36%. Moreover, the results for the “inhibition compared to the base medium (BITS)” value in the test on NIH3T3-PDGF-ββ cells (6 mM peptide) and in the test with NIH3T3-PDGF-ββ cells (12 mM peptide) were 59% and 82%, respectively. The “% of control cell growth” value came out at 78% in the test with NIH3T3-PDGF-ββ cells (Table 1, KKKK (Bachem) 3 mM); 65% in the test on NIH3T3-PDGF-ββ cells (Table 1, KKKK (Bachem) 6 mM); 39% in the test on NIH3T3-PDGF-ββ cells (Table 1, KKKK (Bachem) 12 mM); 105% in the test with NIH3T3-PDGF-ββ cells (Table 2, 1 mM peptide); 72% in the test with NIH3T3-PDGF-ββ cells (Table 2, 3 mM peptide); 41% in the test with NIH3T3-PDGF-ββ cells (Table 2, 6 mM peptide). Besides, the “% of control cell growth” value with NIH3T3-PDGF-ββ cells (Table 2, 12 mM peptide) turned out to be 17%.

Consider `Cc1ccc(C(=O)Nc2ccc(S(=O)(=O)O)c3cc(S(=O)(=O)O)cc(S(=O)(=O)O)c23)cc1NC(=O)c1cccc(NC(=O)Nc2cccc(C(=O)Nc3cc(C(=O)Nc4ccc(S(=O)(=O)O)c5cc(S(=O)(=O)O)cc(S(=O)(=O)O)c45)ccc3C)c2)c1` [suramin], for which the “inhibition of PDGF binding to PDGF R” value in the test with PDGF-R was 100%.

Turning to “DDEEK (printed: ASP ASP GLU GLU LYS) [pentapeptide ASP ASP GLU GLU LYS, from Bachem]”, the “growth inhibition in the initial screen of the library” value (shortened to “growth inhibition”) in the test with NIH3T3-PDGF-ββ cells is “inhibiting growth”. Moreover, the “relative potency in inhibiting cell growth” value in the test with NIH3T3-PDGF-ββ cells (6 mM) is recorded as “most potent inhibitor”. Also, the “inhibition compared to the base medium (BITS)” value is reported as 91% with NIH3T3-PDGF-ββ cells (6 mM peptide) and 84% with NIH3T3-PDGF-ββ cells (12 mM peptide). The “% of control cell growth” value is 108% in the test with NIH3T3-PDGF-ββ cells (Table 2, 1 mM peptide); 93% with NIH3T3-PDGF-ββ cells (Table 2, 3 mM peptide); 11% with NIH3T3-PDGF-ββ cells (Table 2, 6 mM peptide); 16% in the test on NIH3T3-PDGF-ββ cells (Table 2, 12 mM peptide).

Regarding “FFFKK (printed: PHE PHE PHE LYS LYS) [pentapeptide PHE PHE PHE LYS LYS, from Bachem]”, the “growth inhibition” value in the test on NIH3T3-PDGF-ββ cells is listed as “inhibiting growth”. Also, the entries for the “inhibition compared to the base medium (BITS)” value in the test on NIH3T3-PDGF-ββ cells (6 mM peptide) and in the test on NIH3T3-PDGF-ββ cells (12 mM peptide) were 29% and 82%, respectively. Besides, the “% of control cell growth” value with NIH3T3-PDGF-ββ cells (Table 2, 1 mM peptide) is listed as 111%; with NIH3T3-PDGF-ββ cells (Table 2, 3 mM peptide), 103%; in the test with NIH3T3-PDGF-ββ cells (Table 2, 6 mM peptide), 69%; with NIH3T3-PDGF-ββ cells (Table 2, 12 mM peptide) it was 18%.

Regarding “FFHPV (printed: PHE PHE HIS PRO VAL) [pentapeptide PHE PHE HIS PRO VAL, from Bachem]”, the “growth inhibition” value in the test with NIH3T3-PDGF-ββ cells is recorded as “inhibiting growth”. The entries for the “inhibition compared to the base medium (BITS)” value with NIH3T3-PDGF-ββ cells (6 mM peptide) and in the test with NIH3T3-PDGF-ββ cells (9.5 mM peptide) were 14% and 82%, respectively. The “% of control cell growth” value in the test on NIH3T3-PDGF-ββ cells (Table 2, 1 mM peptide) was 116%; with NIH3T3-PDGF-ββ cells (Table 2, 3 mM peptide) it was 111%; in the test with NIH3T3-PDGF-ββ cells (Table 2, 6 mM peptide) it was 85%; in the test on NIH3T3-PDGF-ββ cells (Table 2, 9.5 mM peptide), 16%.

On to “KLMSY (printed: LYS LEU MET SER TYR) [pentapeptide LYS LEU MET SER TYR, from Bachem]”, for which, in the test with NIH3T3-PDGF-ββ cells, the “growth inhibition” value is listed as “inhibiting growth”. Also, the “inhibition compared to the base medium (BITS)” value in the test on NIH3T3-PDGF-ββ cells (6 mM peptide) amounted to 23%; in the test on NIH3T3-PDGF-ββ cells (12 mM peptide), 91%. Also, the “% of control cell growth” value with NIH3T3-PDGF-ββ cells (Table 2, 1 mM peptide) was determined as 127%; in the test on NIH3T3-PDGF-ββ cells (Table 2, 3 mM peptide), 126%; in the test with NIH3T3-PDGF-ββ cells (Table 2, 6 mM peptide), 76%; with NIH3T3-PDGF-ββ cells (Table 2, 12 mM peptide), 10%.

As to neomycin, the “inhibition of binding of PDGF-ββ to the α-type PDGF-R” value at α-type PDGF-R is “inhibited”. Moreover, on PDGF β receptor, the “inhibition of binding to the PDGF β receptor” value is recorded as “not able to inhibit”.
